From patent US20260258378A1, “GLYCOSYLTRANSFERASE ENGINEERING FOR CHEMOENZYMATIC TOTAL SYNTHESIS OF GANGLIOSIDES” (priority 2022, published 2026)

Experiments:
Type in all cases: biochemical, Campylobacter jejuni
MBP-CjCgtBΔ30-His6 [1] = experiment: Effects of divalent metal cations, EDTA and DTT on enzyme activity; details: pH 7.5, Tris-HCl buffer (100 mM); DTT 10 mM
Method: (§1) The enzymatic assays were carried out in duplicate at 37° C. for 10 minutes in a reaction mixture (10 μL) containing the donor substrate (1.5 mM, UDP-GalNAc for MBP-Δ15CjCgtA-His6 and UDP-Gal for MBP-CjCgtBΔ30-His6), an acceptor substrate (1 mM, GM3βNHCbz for MBP-Δ15CjCgtA-His6 and GM2βNHCbz for MBP-CjCgtBΔ30-His6), Tris-HCl buffer (100 mM, pH 7.5), a metal cation (10 mM, MgCl2 for MBP-Δ15CjCgtA-His6 and MnCl2 for MBP-CjCgtBΔ30-His6), and the enzyme (0.32 μM for MBP-Δ15CjCgtA-His6 and 4 μM for MBP-CjCgtBΔ30-His6). The reactions were stopped by adding 10 μL of ice-cold methanol followed by incubation of the mixture on ice for 20 minutes and centrifugation at 16200 g for 5 minutes. The supernatant (about 20 μL) was transferred into another tube containing ddH2O (40 μL) and the resulting mixture was analyzed by liquid chromatography-mass spectrometry (LC-MS) (SHIMADZU LCMS-2020 system with electrospray ionization) for confirming the product and ultra-high-performance liquid chromatography (UHPLC) (monitored at 215 nm on an Agilent Infinity 1290 II HPLC system equipped with 1260 Infinity II Diode Array Detector WR) for reaction yield determination. The column used for the UHPLC analysis was Dionex™ CarboPac™ PA-100 (1.8 μm particle, 4×250 mm, Thermo Scientific, CA) for both glycosyltransferases. A gradient flow (100% water to 70% water/30% 1 M NaCl in 16 min) was used for analyzing the reactions catalyzed by MBP-Δ15CjCgtA-His6 and a different gradient flow (100% water to 75% water/[…] in 16 min) was used for analyzing MBP-CjCgtBΔ30-His6-catalyzed reactions. The flow rate was 0.75 mL min^−1.
(§2) The effect of various metal ions, the chelating reagent EDTA, and the reducing reagent DTT on the enzyme activity of MBP-Δ15CjCgtA-His6 and MBP-CjCgtBΔ30-His6 were examined at pH 7.5 in a Tris-HCl buffer (100 mM). Reactions without metal ions were used as controls.

MBP-Δ15CjCgtA-His6 [2] = experiment: as above; details: pH 7.5, Tris-HCl buffer (100 mM); DTT 10 mM
Method: as §1, §2

MBP-CjCgtBΔ30-His6 [3] = experiment: Effects of detergents on MBP-CjCgtBΔ30-His6 with glycosphingosine acceptor substrates; details: HRMS, sodium cholate 8-10 mM, Triton X-100 10 mM
Method: (§3) Glycosphingosines are much weaker acceptor substrates than the corresponding glycans for both CjCgtA and CjCgtB. This property made it prohibitive for synthesizing GM2βSph and GM1βSph in large-scales using the OPME strategy. […] The effects of these detergents in influencing the activities of both MBP-Δ15CjCgtA-His6 and MBP-CjCgtBΔ30-His6 in using glycosphingosine acceptor substrates and the reactions were analyzed by high-resolution mass spectrometry (HRMS).

MBP-Δ15CjCgtA-His6 [4] = experiment: Effects of detergents on MBP-Δ15CjCgtA-His6-catalyzed OPME formation of GM2βSph; details: glycosphingosine acceptor, HRMS; sodium cholate 8-10 mM; Triton X-100 10 mM
Method: Assays were carried out at 30° C. for 12 hours in a total volume of 10 μL in Tris-HCl buffer (100 mM, pH 7.5) containing a GM3βSph (10 mM), GalNAc (15 mM), ATP (15 mM), UTP (15 mM), MgCl2 (20 mM), BLNahK (2 μg), PmGlmU (2 μg), MBP-Δ15CjCgtA-His6 (3 μg), PmPpA (1 μg), and various concentrations (0, 1, 2, 4, 5, 8, 10, 15, 18 mM) of sodium cholate or Triton X-100 (1, 5, 10, 15 mM). Reactions were quenched by addition of 10 μL of pre-chilled ethanol and the mixtures were incubated at 0° C. for 30 min, centrifuged, and the supernatant were analyzed by high resolution mass spectrometry (HRMS).
as §3

Molecule	effect on the enzyme activity of MBP-CjCgtBΔ30-His6 (MBP-CjCgtBΔ30-His6 [1])	effect on the enzyme activity of MBP-Δ15CjCgtA-His6 (MBP-Δ15CjCgtA-His6 [2])	effect of detergent on reaction yield / enzyme activity (MBP-CjCgtBΔ30-His6 [3])	effect of detergent on reaction yield / enzyme activity (MBP-Δ15CjCgtA-His6 [4])
O[C@H](CS)[C@H](O)CS (racemic) [dithiothreitol]	improved the activity	deactivated		
[Ca+2] [Ca^2+]	not	suitable		
[Mg+2] [Mg^2+]	less effective	equally effective		
[Mn+2] [Mn^2+]	preferred cation			
C[C@H](CCC(=O)[O-])[C@H]1CC[C@H]2[C@@H]3[C@H](O)C[C@@H]4C[C@H](O)CC[C@]4(C)[C@H]3C[C@H](O)[C@]12C.[Na+] [sodium cholate]			greatly enhanced	greatly enhanced
Triton X-100			improved	improved
